Literature values, collected in publication PMC7845544 (Frontiers in Pharmacology, 2021).

Key:
monkeys = tested on: monkeys; design: method as in Gerrits et al., 2016; conditions: ref Gerrits et al., 2016, cited from earlier work
TSH receptor = target: TSH receptor; design: method as in Gerrits et al., 2016; conditions: ref Gerrits et al., 2016, cited from earlier work
human FSHR = tested on: human FSHR; design: method as in Gerrits et al., 2016; conditions: ref Gerrits et al., 2016; read-out: human FSHR-AA EC50; cited from earlier work
women = tested on: women; design: method as in Gerrits et al., 2016; conditions: up to 40 mg/day; ref Gerrits et al., 2016; cited from earlier work
[1] = design: method as in Ghobadi et al., 2009; conditions: ref Ghobadi et al., 2009; cited from earlier work

SMILES | dose for thyroid follicular cell hypertrophy (monkeys) [mg/kg] | fold separation between ovarian and thyroid stimulation (monkeys) [fold] | dose required for folliculogenesis (monkeys; twice daily) [mg/kg] | EC50 (TSH receptor; read-out: TSH receptor EC50) [nM] | TSHR/FSHR (TSH receptor) | EC50 (human FSHR) [nM] | follicular growth in human phase one study (women) | elimination from blood [1] [h]
COc1cc2c(cc1CC(C)C)-c1c(-c3cccs3)cc(C(=O)N(C)C(C)(C)C)n1CC2 [MK-8389] | 23 | 10 | 2.25 | 340 | 81 | 4.2 | failed to induce follicular growth | 
CCN(CC)CCOc1ccc(C(=C(Cl)c2ccccc2)c2ccccc2)cc1 [clomiphene] |  |  |  |  |  |  |  | ≥ 72
